“And” between values parts separate entries of the source, which are not always exact repeats. Equal entries are not always repeated. Records with an inconclusive call do not appear.
System: mice, ADJ-PC-20 plasma cell tumor sc, T/C %
Assay: NCI In Vivo Anticancer Drug Screen. Data for tumor model ADJ-PC-20 Plasma Cell (subcutaneous) in unknown mice
Details: endpoint: mean tumor weight, higher = larger tumour
Protocol: The antitumor activity of compounds was measured in mice bearing transplantable tumors. Survival or tumor size were measured and the results are expressed as the measurement made in the treated group (T) divided by the measurement made in the vehicle treated control group (C). The tumor model used in this assay is ADJ-PC-20 Plasma Cell (subcutaneous) in unknown mice

[1] = dose: 6.3 mg/kg/injection, schedule: Q01DX010 (ip), vehicle: carboxymethylcellulose (CMC)
[2] = dose: 12.5 mg/kg/injection, schedule: Q01DX010 (ip), vehicle: carboxymethylcellulose (CMC)
[3] = dose: 25.0 mg/kg/injection, schedule: Q01DX010 (ip), vehicle: carboxymethylcellulose (CMC)
[4] = dose: 50.0 mg/kg/injection, schedule: Q01DX010 (ip), vehicle: carboxymethylcellulose (CMC)
[5] = dose: 100.0 mg/kg/injection, schedule: Q01DX010 (ip), vehicle: carboxymethylcellulose (CMC)
[6] = dose: 3.1 mg/kg/injection, schedule: Q01DX010 (ip), vehicle: carboxymethylcellulose (CMC)
[7] = dose: 3.75 mg/kg/injection, schedule: Q01DX010 (ip), vehicle: carboxymethylcellulose (CMC)
[8] = dose: 7.5 mg/kg/injection, schedule: Q01DX010 (ip), vehicle: carboxymethylcellulose (CMC)
[9] = dose: 15.0 mg/kg/injection, schedule: Q01DX010 (ip), vehicle: carboxymethylcellulose (CMC)
[10] = dose: 30.0 mg/kg/injection, schedule: Q01DX010 (ip), vehicle: carboxymethylcellulose (CMC)
[11] = dose: 6.25 mg/kg/injection, schedule: Q01DX010 (ip), vehicle: carboxymethylcellulose (CMC)

Cn1c(N)nc2nc[nH]c2c1=S
T/C [1]: 118 % of control | T/C [2]: 105 % of control | T/C [3]: 116 % of control | T/C [4]: 98 % of control | T/C [5]: 76 % of control

C[N+](C)(C)c1ncnc2nc[nH]c12
T/C (dose: 0.8 mg/kg/injection, schedule: Q01DX010 (ip), vehicle: carboxymethylcellulose (CMC)): 70 % of control | T/C (dose: 1.6 mg/kg/injection, schedule: Q01DX010 (ip), vehicle: carboxymethylcellulose (CMC)): 59 % of control | T/C [6]: 69 % of control | T/C [1]: 70 % of control | T/C [2]: 36 % of control | T/C [3]: 52 % of control | T/C [4]: 6 % of control

COS(C)(=O)=O
T/C (dose: 25.0 mg/kg/injection, schedule: Q01DX010 (ip), vehicle: water): 110 % of control | T/C (dose: 50.0 mg/kg/injection, schedule: Q01DX010 (ip), vehicle: water): 82 % of control | T/C (dose: 100.0 mg/kg/injection, schedule: Q01DX010 (ip), vehicle: water): 42 % of control

N#[N+]c1cnc([O-])[nH]c1=O
T/C (dose: 5.0 mg/kg/injection, schedule: Q01DX010 (ip), vehicle: carboxymethylcellulose (CMC)): 99 % of control | T/C (dose: 10.0 mg/kg/injection, schedule: Q01DX010 (ip), vehicle: carboxymethylcellulose (CMC)): 90 % of control

C[C@]12CCC(=O)C=C1CC[C@@H]1[C@@H]2C(=O)C[C@@]2(C)[C@H]1CC[C@]2(O)C(=O)CO
T/C (dose: 31.25 mg/kg/injection, schedule: Q01DX010 (sc), vehicle: steriod suspending solution): 7 % of control | T/C (dose: 125.0 mg/kg/injection, schedule: Q01DX010 (sc), vehicle: steriod suspending solution): 11 % of control

[I][Hg][CH2]C1COC([CH2][Hg][I])CO1 (centres undefined)
T/C [7]: 87 % of control | T/C [8]: 111 % of control | T/C [9]: 104 % of control | T/C [10]: 115 % of control

C[C@]12CCC(=O)C=C1CC[C@H]1[C@@H]3CC[C@](O)(C(=O)CO)[C@@]3(C)C[C@H](O)[C@@]12F
T/C (dose: 2.5 mg/kg/injection, schedule: Q01DX010 (sc), vehicle: steriod suspending solution): 62 % of control | T/C (dose: 5.0 mg/kg/injection, schedule: Q01DX010 (sc), vehicle: steriod suspending solution): 43 % of control | T/C (dose: 10.0 mg/kg/injection, schedule: Q01DX010 (sc), vehicle: steriod suspending solution): 33 % of control

CSc1ncnc2c1ncn2C1OC(CO)C(O)C1O (centres undefined)
T/C [6]: 84 % of control | T/C [11]: 98 % of control | T/C [2]: 104 % of control | T/C [3]: 14 % of control

CC(=O)Nc1ccc2nc3ccc(NC(C)=O)cc3[n+](-c3ccccc3)c2c1
T/C [2]: 65 % of control | T/C [3]: 76 % of control | T/C [4]: 77 % of control

O=C(Nc1ccc(C2=NCCN2)cc1)c1cccc(C(=O)Nc2ccc(C3=NCCN3)cc2)c1
T/C (dose: 9.4 mg/kg/injection, schedule: Q01DX010 (ip), vehicle: carboxymethylcellulose (CMC)): 154 % of control | T/C (dose: 18.8 mg/kg/injection, schedule: Q01DX010 (ip), vehicle: carboxymethylcellulose (CMC)): 214 % of control | T/C (dose: 37.5 mg/kg/injection, schedule: Q01DX010 (ip), vehicle: carboxymethylcellulose (CMC)): 187 % of control

C[C@H]1C(=O)O[C@@H]2CCN3CC=C(COC(=O)[C@](C)(O)[C@@]1(C)O)[C@H]23
T/C [7]: 86 % of control | T/C [8]: 56 % of control | T/C [9]: 30 % of control | T/C [10]: 36 % of control and 44 % of control | T/C (dose: 60.0 mg/kg/injection, schedule: Q01DX010 (ip), vehicle: carboxymethylcellulose (CMC)): 6 % of control and 17 % of control

CN(C)c1ccc(Nc2c3ccccc3nc3ccccc23)cc1
T/C [11]: 88 % of control | T/C [3]: 115 % of control | T/C [5]: 67 % of control
